Test results published in article PMC7766159, “Novel Psychoactive Phenethylamines: Impact on Genetic Material” (International Journal of Molecular Sciences, 2020).

Assays:
[1] = test system: HepG2; parameters: method as in PMID 28645576; conditions: 24 h treatment; cited from earlier work
[2] = test system: TK6 cells; experiment: Genotoxicity analysis (micronucleus frequency, automated flow cytometric protocol); assay type: cell-based, human; conditions: for MNi frequency fold increase: 26 h, vs C (-); for relative genotoxic potency: comparison within the series
Protocol: (§1) In all experiments, aliquots of 2 × 10^5 of TK6 cells were treated with increasing concentrations of phenethylamines from 0 to 75 µM and incubated for 26 h, corresponding to two replication cycles for the analysis of cytotoxicity, cytostasis, apoptosis, and genotoxicity, while for the analysis of ROS, 1 h of treatment was performed.
The analysis of the MNi frequency was performed using a new automated flow cytometric protocol that we recently developed in our laboratory. The detailed protocol is described in the paper by Lenzi et al. and was used in our previous publication to analyze the genotoxicity of some synthetic cannabinoids.
Briefly, at the end of the phenethylamines treatment time, 7 × 10^5 cells were collected and incubated with 7-AAD at RT for 5 min, after which the cells were lysed and stained with SYTOX Green for 1 h. After, a total of 10,000 nuclei, derived from viable and proliferating cells (7-AAD negative), and the corresponding number of micronuclei were acquired. The discrimination between nuclei and MNi occurs on the basis of the different size analyzed by Forward Scatter (FSC), and the different intensity of green fluorescence (SYTOX Green).
The MNi frequencies (number of MNi/10,000 nuclei) recorded in treated cultures were normalized on those recorded in the untreated control cultures, accounted equal to 1 and expressed as MNi frequency fold increase.
As recommended by OECD guideline 487, we used MMC and VINB as positive controls, being known clastogen and aneuploidogen agents, respectively.

[3] = test system: TK6 cells; experiment: Apoptosis analysis (Guava Nexin Assay); assay type: cell-based, human; conditions: 26 h
Protocol: as §1
The percentage of apoptotic cells was evaluated by the Guava Nexin Assay according to the procedure by Lenzi et al..
Briefly, at the end of the phenethylamines treatment time, the percentage of apoptotic cells was assessed using the Guava Nexin Reagent. The reagent contains the 7-aminoactinomycin D (7-AAD), a cell non-permeant dye, that allows discrimination between live and dead cells and the Annexin-V-PE that allows the identification of apoptotic cells by binding the phosphatidylserine on the cell surface.
100 μL of reagent were added to 100 μL of cell suspension (~1 × 10^5 cells) and incubated for 20 min at RT. After, a total of 2000 events were acquired and analyzed by Guava Nexin software.
The apoptotic cell percentages recorded in the cultures treated with phenethylamines different concentrations were normalized on those recorded in the untreated control cultures, accounted equal to 1 and expressed as apoptotic fold increase.

[4] = test system: TK6 cells; experiment: Cytostasis analysis (Relative Population Doubling, Guava ViaCount); assay type: cell-based, human; conditions: for Relative Population Doubling (RPD): 26 h treatment, vs untreated control C (-) = 100%, mean ± SEM; for concentrations that caused an RPD value well above 55 ± 5% (OECD threshold): 26 h, tested 6.25-75 µM
Source text: In addition, to make the genotoxicity test reliable, it is necessary to check the cellular proliferation in order to verify that a sufficient number of cells has undergone mitosis and so transmitted the genetic damage suffered to the daughter cells. For this purpose, the OECD recommends the measurement of the Relative Population Doubling (RPD) to estimate the cytostasis and, analogously to the cytotoxicity, establishes a threshold at most equal to 55 ± 5% [45].
as §1
In parallel, always using the Guava ViaCount Reagent, the number of cells seeded at time 0 and that measured at the end of the phenethylamines treatment time was used to check the correct replication in the control cultures and to compare it to that measured in the treated cultures by the RPD, calculated as the following formula [46, 47]: RPD= (No. of Population doublings in treated cultures)/(No. of Population doublings in control cultures) × 100
Similarly to cytotoxicity, the cytostasis was checked in order to verify that cell proliferation respected the threshold established by the OECD guideline (55 ± 5%).

[5] = test system: TK6 cells; experiment: Cytotoxicity analysis (Guava ViaCount, cell viability); assay type: cell-based, human; conditions: Guava ViaCount assay, 26 h
Protocol: In the preliminary phase of the research, we determined the concentrations to be used in the subsequent experiments aimed at evaluating the potential genotoxicity of different molecules under study. First, we assessed the 2C-H, 2C-I, 2C-B, 25B-NBOMe, and MDMA-induced cytotoxicity after 26 h treatment (time required by TK6 cells to carry out two cell cycles) by measuring the percentage of live cells at the different concentrations tested (6.25, 12.5, 25, 35, 50, 75 µM). This value was normalized on the one obtained in the untreated control cultures C (-) equal to 100% in order to check whether the cellular viability complied with the OECD threshold (equal to 55 ± 5%).
as §1
Cytotoxicity assay was performed as previously described by Lenzi et al.. Briefly, at the end of the phenethylamines treatment time, 1.5 × 10^5 cells were stained with Guava ViaCount Reagent. The reagent contains the Propidium Iodide (PI) that allows us to discriminate viable from dead cells based on different permeability to DNA-binding dye.
180 μL of reagent were added to 20 μL of cell suspension and incubated for 5 min at room temperature (RT). After, a total of 1000 events were acquired and analyzed by Guava ViaCount software.
The results obtained from the samples treated with different concentrations of phenethylamines were normalized on those obtained from the untreated control cultures, accounted equal to 100%.

[6] = test system: SH-SY5Y; parameters: method as in PMID 28067045, PMID 30925718, PMID 28527032; conditions: 2–24 h treatment, concentration-dependent (1000–3000 μM); cited from earlier work
[7] = test system: HepG2 cells; parameters: method as in PMID 31068823; conditions: cited from earlier work
[8] = test system: TK6 cells; parameters: method as in PMID 27637481; conditions: CYP1A1, 1B1 and 1A2 not expressed; cited from earlier work
[9] = vs untreated control C (-) equal to 1, tested concentrations
[10] = both tested concentrations, 6.25 µM and 12.5 µM

SMILES | Relative Population Doubling (RPD) ([4]; 6.25 µM) | Relative Population Doubling (RPD) ([4]; 12.5 µM) | Relative Population Doubling (RPD) ([4]; 25 µM) | Relative Population Doubling (RPD) ([4]; 35 µM) | Relative Population Doubling (RPD) ([4]; 50 µM) | Relative Population Doubling (RPD) ([4]; 75 µM) | concentrations that caused an RPD value well above 55 ± 5% (OECD threshold) [4] | concentration up to which no cytotoxicity and cytostasis was induced [5] | further results
CCCC(C(=O)c1ccc2ccccc2c1)N1CCCC1 (stereo not shown) [naphyrone] |  |  |  |  |  |  |  |  | concentration that increased O2•− levels [1]: 0.2 mM
COc1cc(CCN)c(OC)cc1I [2C-I, 2,5-Dimethoxy-4-iodophenethylamine] | 90.9% ± 0.7 | 89.6% ± 2.2 | 72.5% ± 2.0 | 63.9% ± 1.6 | 54.8% ± 0.9 | 30.8% ± 1.0 | up to 35 µM | up to 35 µM | MNi frequency fold increase ([2]; 35 µM): statistically significant increase; apoptosis fold increase [3, 9]: never reached a doubling
CNC(C)C(=O)c1ccc2c(c1)OCO2 (stereo not shown) [methylone] |  |  |  |  |  |  |  |  | superoxide levels [6]: increase in superoxide levels
CC(N)Cc1ccccc1 (stereo not drawn) [amphetamine, α-methylphenylethylamine] |  |  |  |  |  |  |  |  | mitochondrial superoxide levels [7]: increase mitochondrial superoxide levels
CC(N)Cc1ccc(Cl)cc1 (stereo not shown) [4-chloroamphetamine] |  |  |  |  |  |  |  |  | mitochondrial superoxide levels [7]: increase mitochondrial superoxide levels
COc1ccc(OC)c(CCN)c1 [2C-H, 2,5-dimethoxyphenethylamine] | 97.5% ± 0.9 | 81.1% ± 1.8 | 85.0% ± 2.4 | 74.0% ± 1.8 | 34.1% ± 1.2 | 13.0% ± 1.5 | up to 35 µM | up to 35 µM | MNi frequency fold increase ([2]; 35 µM): statistically significant increase; apoptosis fold increase [3, 9]: never reached a doubling
COc1cc(CCN)c(OC)cc1Br [2C-B, 2,5-dimethoxy-4-bromophenethylamine] | 95.9% ± 0.7 | 93.1% ± 2.1 | 69.7% ± 1.6 | 63.1% ± 1.6 | 10.0% ± 1.8 | 0.0% | up to 35 µM | up to 35 µM | MNi frequency fold increase [2, 10]: increased at both the tested concentrations; relative genotoxic potency [2]: stronger genotoxic agents than 2C-I and 2C-H; apoptosis fold increase ([3]; 25 µM and 35 µM, vs C (-)): statistically significant increase
c1ccc2c(c1)cc1ccc3cccc4ccc2c1c34 [benzo [a] pyrene] |  |  |  |  |  |  |  |  | micronuclei induction [8]: failed to induce micronuclei
COc1cc(CCNCc2ccccc2OC)c(OC)cc1Br [25B-NBOMe, 4-bromo-2,5-dimethoxy-N-[(2-methoxyphenyl)methyl]-benzeneethanamine] | 86.4% ± 1.3 | 81.2% ± 2.0 | 50.0% ± 0.8 | 1.0% ± 0.2 | 0.0% | 0.0% | up to 12.5 µM | up to 12.5 µM | MNi frequency fold increase [2, 10]: increased at both the tested concentrations; relative genotoxic potency [2]: stronger genotoxic agents than 2C-I and 2C-H; apoptosis fold increase [3, 9]: never reached a doubling
CCCC(C(=O)c1ccccc1)N1CCCC1 (stereo not shown) [αPVP] |  |  |  |  |  |  |  |  | superoxide levels [6]: increase in superoxide levels
CNC(C)C(=O)c1ccc(C)cc1 (stereo not shown) [mephedrone] |  |  |  |  |  |  |  |  | concentration that increased O2•− levels [1]: 1 mM
CCCC(C(=O)c1ccc2c(c1)OCO2)N1CCCC1 (stereo not shown) [MDPV] |  |  |  |  |  |  |  |  | superoxide levels [6]: increase in superoxide levels; concentration that increased O2•− levels [1]: 2 mM
CC(N)Cc1ccc(F)cc1 (stereo not shown) [4-fluoroamphetamine, 4-Fluoroamphetamine] |  |  |  |  |  |  |  |  | mitochondrial superoxide levels [7]: increase mitochondrial superoxide levels
